Molecular target: SARS-COV-2 3CLpro/Mpro protease (Severe acute respiratory syndrome coronavirus 2 (2019-nCoV) (SARS-CoV-2), UniProt P0DTD1)
Assay: Inhibitory effect on SARS-COV-2 3CLpro/Mpro protease by fluorescence resonance energy transfer
Assay type: biochemical
Conditions: activity intervals A-D, read-out: IC50 (nM), Inhibition on SARS-CoV-2 3CLpro/Mpro protease

| SMILES | IC50 |
| --- | --- |
| CNc1cncc(C(=O)N2C[C@H](Nc3c(C(=O)N4C[C@@H](C)O[C@@H](C)C4)cc(Br)cc3[N+](=O)[O-])C[C@H]2C(=O)NCc2ccccc2)c1 [Example 390] | 10 to 50 nM |
| CNc1cncc(C(=O)N2C[C@H](Nc3c(C(=O)N4C[C@@H](C)O[C@@H](C)C4)cc(Br)cc3[N+](=O)[O-])C[C@@H]2C#N)c1 [Example 391] | 50 to 100 nM |
| CNc1cncc(C(=O)N2C[C@H](Nc3c(C(=O)N4C[C@@H](C)O[C@@H](C)C4)cc(Br)cc3[N+](=O)[O-])C[C@H]2C#Cc2cnn(C)c2)c1 [Example 392] | 50 to 100 nM |
| CNc1cncc(C(=O)N2C[C@H](Nc3c(C(=O)N4C[C@@H](C)O[C@@H](C)C4)cc(Br)cc3[N+](=O)[O-])C[C@H]2C(=O)NC2CNC(=O)C2)c1 (some centres unmarked) [Example 393] | 50 to 100 nM |
| CNc1cncc(C(=O)N2C[C@H](Nc3c(C(=O)N4C[C@@H](C)O[C@@H](C)C4)cc(Br)cc3[N+](=O)[O-])C[C@H]2C(=O)NCCOC)c1 [Example 394] | 50 to 100 nM |
| CNc1cncc(C(=O)N2C[C@H](Nc3c(C(=O)N4C[C@@H](C)O[C@@H](C)C4)cc(Br)cc3[N+](=O)[O-])C[C@H]2C(=O)NCc2ccncc2)c1 [Example 395] | 50 to 100 nM |
| CNc1cncc(C(=O)N2C[C@H](Nc3c(C(=O)N4C[C@@H](C)O[C@@H](C)C4)cc(Br)cc3[N+](=O)[O-])C[C@H]2c2nnco2)c1 [Example 396] | 50 to 100 nM |
| CNc1cncc(C(=O)N2C[C@H](Nc3c(C(=O)N4C[C@@H](C)O[C@@H](C)C4)cc(Br)cc3[N+](=O)[O-])C[C@H]2C(=O)N[C@@H]2CCNC2=O)c1 [Example 397] | 50 to 100 nM |
| CNc1cncc(C(=O)N2C[C@H](Nc3c(C(=O)N4C[C@@H](C)O[C@@H](C)C4)cc(Br)cc3[N+](=O)[O-])CC[C@H]2C#N)c1 [Example 398] | 10 to 50 nM |
| CNc1cncc(C(=O)N2C[C@H](Nc3c(C(=O)N4C[C@@H](C)O[C@@H](C)C4)cc(Br)cc3[N+](=O)[O-])C[C@H]2C(=O)Nc2cc3cn(C)nc3cc2Cl)c1 [Example 399] | 50 to 100 nM |
| CNc1cncc(C(=O)N2C[C@H](Nc3c(C(=O)N4C[C@@H](C)O[C@@H](C)C4)cc(Br)cc3[N+](=O)[O-])C[C@H]2C#Cc2cnoc2)c1 [Example 400] | 100 to 200 nM |
| CNc1cncc(C(=O)N2C[C@H](Nc3c(C(=O)N4C[C@@H](C)O[C@@H](C)C4)cc(Br)cc3[N+](=O)[O-])C[C@H]2C(=O)Nc2cnn(C)c2)c1 [Example 401] | 50 to 100 nM |
| CNc1cncc(C(=O)N2C[C@H](Nc3c(C(=O)N4C[C@@H](C)O[C@@H](C)C4)cc(Br)cc3[N+](=O)[O-])C[C@H]2C(=O)N[C@H]2CCOC2)c1 [Example 402] | 50 to 100 nM |
| CNc1cncc(C(=O)N2C[C@H](Nc3c(C(=O)N4C[C@@H](C)O[C@@H](C)C4)cc(Br)cc3[N+](=O)[O-])CC[C@@H]2C#N)c1 [Example 403] | 50 to 100 nM |
| CNc1cncc(C(=O)N2C[C@H](Nc3c(C(=O)N4C[C@@H](C)O[C@@H](C)C4)cc(Br)cc3[N+](=O)[O-])C[C@H]2C(=O)N[C@H]2CCN(CCOC)C2)c1 [Example 404] | 100 to 200 nM |
| CNc1cncc(C(=O)N2C[C@H](Nc3c(C(=O)N4C[C@@H](C)O[C@@H](C)C4)cc(Br)cc3[N+](=O)[O-])[C@@H](OCCOC)C2)c1 [Example 405] | 10 to 50 nM |
| CNc1cnc(F)c(C(=O)N2C[C@H](Nc3c(C(=O)N4C[C@@H](C)O[C@@H](C)C4)cc(Br)cc3[N+](=O)[O-])[C@@H](OC)C2)c1 [Example 406] | 50 to 100 nM |
| CNc1cncc(C(=O)N2C[C@H](Nc3c(C(=O)N4C[C@@H](C)O[C@@H](C)C4)cc(Br)cc3[N+](=O)[O-])CC2C(=O)Nc2cc(Cl)n(C)n2)c1 (some centres unmarked) [Example 407] | 50 to 100 nM |
| CO[C@H]1CN(C(=O)c2cncc3[nH]cnc23)C[C@@H]1Nc1c(C(=O)N2C[C@@H](C)O[C@@H](C)C2)cc(Br)cc1[N+](=O)[O-] [Example 408] | 10 to 50 nM |
| CCn1cc(Br)c(NC(=O)[C@@H]2C[C@@H](Nc3c(C(=O)N4C[C@@H](C)O[C@@H](C)C4)cc(Br)cc3[N+](=O)[O-])CN2C(=O)c2cncc(NC)c2)n1 [Example 409] | 50 to 100 nM |
| CNc1cncc(C(=O)N2C[C@H](Nc3c(C(=O)N4C[C@@H](C)O[C@@H](C)C4)cc(Br)cc3[N+](=O)[O-])C[C@H]2C(=O)Nc2cn(C)c(=O)cc2Cl)c1 [Example 410] | 100 to 200 nM |
| CNc1cncc(C(=O)N2C[C@H](Nc3c(C(=O)N4CCCC(F)(F)C4)cc(Br)cc3[N+](=O)[O-])C[C@H]2C(=O)Nc2nn(C)cc2Br)c1 [Example 411] | 50 to 100 nM |

| SMILES | IC50 |
| --- | --- |
| CNc1cncc(C(=O)N2C[C@H](Nc3c(C(=O)N4C[C@@H](C)O[C@@H](C)C4)cc(Br)cc3[N+](=O)[O-])C[C@H]2C(=O)Nc2cn(C)nc2Br)c1 [Example 412] | 50 to 100 nM |
| CNc1cncc(C(=O)N2C[C@H](Nc3c(C(=O)N4C[C@@H](C)O[C@@H](C)C4)cc(Br)cc3[N+](=O)[O-])C[C@H]2C(=O)NC2CN(CCOC)C2)c1 [Example 413] | 100 to 200 nM |
| CNc1cncc(C(=O)N2C[C@H](Nc3c(C(=O)N4C[C@@H](C)O[C@@H](C)C4)cc(Br)cc3[N+](=O)[O-])C[C@H]2C#Cc2ccn(C)n2)c1 [Example 414] | 100 to 200 nM |
| CNc1cncc(C(=O)N2C[C@H](Nc3c(C(=O)N4C[C@@H](C)O[C@@H](C)C4)cc(Br)cc3[N+](=O)[O-])C[C@H]2C(=O)Nc2ccnc(F)c2)c1 [Example 415] | 50 to 100 nM |
| CNc1cncc(C(=O)N2C[C@H](Nc3c(C(=O)N4C[C@@H](C)O[C@@H](C)C4)cc(Br)cc3[N+](=O)[O-])C[C@H]2C(=O)Nc2ccc(C(F)(F)F)nc2)c1 [Example 416] | 100 to 200 nM |
| CNc1cncc(C(=O)N2C[C@H](Nc3c(C(=O)N4C[C@@H](C)O[C@@H](C)C4)cc(Br)cc3[N+](=O)[O-])C[C@H]2C(=O)Nc2nn(CC(F)(F)F)cc2Br)c1 [Example 417] | 50 to 100 nM |
| CNc1cncc(C(=O)N2C[C@H](Nc3c(C(=O)N4C[C@@H](C)O[C@@H](C)C4)cc(Br)cc3[N+](=O)[O-])C[C@H]2C(=O)Nc2nn(CCOC)cc2Br)c1 [Example 418, (2S,4R)-4-((4-bromo-2-((2R,6S)-2,6-dimethylmorpholin-4-carbonyl)-6-nitrophenyl)amino)-1-(5-(methylamino)nicotinoyl)-N-(4-bromo-1-(2-methoxyethyl)-1H-pyrazol-3-yl) pyrrolidine-2-formamide] | 50 to 100 nM |
| CNc1cncc(C(=O)N2C[C@H](Nc3c(C(=O)N4C[C@@H](C)O[C@@H](C)C4)cc(Br)cc3[N+](=O)[O-])C[C@H]2C(=O)NCc2ccnc(C(F)(F)F)c2)c1 [Example 419] | 50 to 100 nM |
| CNc1cncc(C(=O)N2C[C@H](Nc3c(C(=O)N4C[C@@H](C)O[C@@H](C)C4)cc(Br)cc3[N+](=O)[O-])C[C@H]2C(=O)Nc2nn(C3CC3)cc2Br)c1 [Example 420] | 50 to 100 nM |
| CNc1cncc(C(=O)N2C[C@H](Nc3c(C(=O)N4C[C@@H](C)O[C@@H](C)C4)cc(Br)cc3[N+](=O)[O-])C[C@H]2C(=O)N[C@@H]2COC(=O)C2)c1 [Example 421] | 100 to 200 nM |
| CO[C@H]1CN(C(=O)c2cncc3[nH]ccc23)C[C@@H]1Nc1c(C(=O)N2C[C@@H](C)O[C@@H](C)C2)cc(Br)cc1[N+](=O)[O-] [Example 423] | 10 to 50 nM |
| CNc1cncc(C(=O)N2C[C@H](Nc3c(C(=O)N4C[C@@H](C)O[C@@H](C)C4)cc(Br)cc3[N+](=O)[O-])C[C@H]2C(=O)Nc2nn(-c3cccnc3)cc2Br)c1 [Example 424] | 50 to 100 nM |
| CNc1cncc(C(=O)N2C[C@H](Nc3c(C(=O)N4C[C@@H](C)O[C@@H](C)C4)cc(Br)cc3[N+](=O)[O-])C[C@H]2C(=O)Nc2ccc3nn(C)cc3c2Cl)c1 [Example 425] | 100 to 200 nM |
| CNc1cncc(C(=O)N2C[C@H](Nc3c(C(=O)N4C[C@@H](C)O[C@@H](C)C4)cc(Br)cc3[N+](=O)[O-])C[C@H]2C(=O)NCc2ccnc(F)c2)c1 [Example 426] | 100 to 200 nM |
| CNc1cncc(C(=O)N2C[C@H](Nc3c(C(=O)N4C[C@@H](C)O[C@@H](C)C4)cc(Br)cc3[N+](=O)[O-])C[C@H]2C(=O)Nc2ccnc(C(F)(F)F)c2)c1 [Example 427, (2S,4R)-4-((4-bromo-2-((2R,6S)-2,6-dimethylmorpholin-4-carbonyl)-6-nitrophenyl)amino)-1-(5-(methylamino)nicotinoyl)-N-(2-(trifluoromethyl)pyridin-4-yl) pyrrolidine-2-formamide] | 100 to 200 nM |
| CNc1cncc(C(=O)N2C[C@H](Nc3c(C(=O)N4C[C@@H](C)O[C@@H](C)C4)cc(Br)cc3[N+](=O)[O-])C[C@H]2C(=O)Nc2ccnc(C(F)(F)F)n2)c1 [Example 428] | 50 to 100 nM |
| CNc1cncc(C(=O)N2C[C@H](Nc3c(C(=O)N4C[C@@H](C)O[C@@H](C)C4)cc(Br)cc3[N+](=O)[O-])C[C@H]2C(=O)Nc2cc3nn(C)cc3cc2Cl)c1 [Example 429] | 100 to 200 nM |
| CNc1cncc(C(=O)N2C[C@H](Nc3c(C(=O)N4C[C@@H](C)O[C@@H](C)C4)cc(Br)cc3[N+](=O)[O-])C[C@H]2C(=O)NCc2ccnc(NC)c2)c1 [Example 430] | 100 to 200 nM |
| CNc1cncc(C(=O)N2C[C@H](Nc3c(C(=O)N4C[C@@H](C)O[C@@H](C)C4)cc(Br)cc3[N+](=O)[O-])C[C@H]2C(=O)NCc2ccnc(C(F)F)c2)c1 [Example 431] | 50 to 100 nM |
| CNc1cncc(C(=O)N2C[C@H](Nc3c(C(=O)N4C[C@@H](C)O[C@@H](C)C4)cc(Br)cc3[N+](=O)[O-])C[C@H]2C(=O)NC2C[C@@H](C)O[C@@H](C)C2)c1 (some centres unmarked) [Example 433] | 100 to 200 nM |
| CNc1cncc(C(=O)N2C[C@H](Nc3c(C(=O)N4C[C@@H](C)O[C@@H](C)C4)cc(Br)cc3[N+](=O)[O-])C[C@H]2C(=O)N[C@H]2CC[C@@H](OC)C2)c1 [Example 434, (2S,4R)-4-((4-bromo-2-((2R,6S)-2,6-dimethylmorpholin-4-carbonyl)-6-nitrophenyl)amino)-N-((1S,3R)-3-methoxycyclopentyl)-1-(5-(methylamino)nicotinoyl) pyrrolidine-2-formamide] | 100 to 200 nM |
| CNc1cncc(C(=O)N2C[C@H](Nc3c(C(=O)N4C[C@@H](C)O[C@@H](C)C4)cc(Br)cc3[N+](=O)[O-])C[C@H]2C(=O)Nc2ccc3c(cnn3C)c2Cl)c1 [Example 435] | 50 to 100 nM |

— US20250042889A1, “3CLPRO PROTEASE INHIBITOR” (SHANGHAI QILU PHARMACEUTICAL RESEARCH AND DEVELOPMENT …, priority 2021, published 2025)
